Results on 3 compounds are retold here after patent publication US8796202B2, “Multi-valent poly-Ubl chain inhibitors and methods of use” (City of Hope, priority 2011, dated 2014).

“Also recorded” adds a separate entry of the source. Non-standard residues stand in square brackets, D forms with d. Residues, ends and D or L forms follow the SMILES beside them. ξ: configuration not given here. *: point of attachment. Ile(3ξ) = CCC(C)[C@H](N)C(=O)O; Cbz = O=C(OCc1ccccc1)*

The target in one assay is SUMO-3 (Homo sapiens, UniProt P55854). As to the kind of experiment: NMR (HSQC) chemical shift perturbation binding to SUMO-3. Conditions: for chemical shift perturbation / binding to SUMO-3: HSQC, SUMO:ligand 1:3 or 1:10. As for the experimental part: NMR studies. All NMR samples contained 10 mM phosphate buffer (pH 7.0) in 90% H2O/10% D2O. NMR spectra were acquired at 25° C. on a Bruker […] NMR spectrometer. All chemicals were dissolved in DMSO. Heteronuclear Single Quantum Coherence (HSQC) spectra were acquired at SUMO:compound ratios of 1:3 or 1:10 for the top scored compounds from virtual ligand screening. Both SUMO-1 and SUMO-2 were examined for their interactions with the compounds. The HSQC spectra were acquired for the protein alone, the protein with addition of 2% DMSO, and the protein in complex with a compound and 2% DMSO. The dissociation constant Kd was estimated by titrating the compound to SUMO-2, followed by recording HSQC spectra at protein:compound ratios of 1:1, 1:2, 1:3, 1:4, 1:5, 1:6, 1:7 and 1:20.
Interactions of the compounds shown in FIG. 4 with SUMO-1 and SUMO-3 were verified by NMR chemical shift perturbation analysis. These compounds generated negligible chemical shift perturbations (CSP) on SUMO-1, but much larger and specific chemical shift perturbations on SUMO-3 (FIGS. 5A and 6). […] Chemical shift perturbation was used to estimate the binding affinity of the representative compound, 333751, to SUMO-3 (20). […] This is not surprising given the much smaller size of the compound than the 10 amino acid residue SIM peptide. The SIM-binding groove on SUMO is very shallow and lacks a deep pocket (8). Since there is a lack of high affinity ligands to bind shallow surface pockets of proteins, it is unlikely that a high affinity small molecule ligand for the SIM binding surface of SUMO can be found.

For assay [1], the target named is T1, interaction between poly-SUMO-3 chain and the tandem-SIM peptide (Homo sapiens, UniProt P55854).
T1 construct: made in house
As to the kind of experiment: SIM pull-down (ELISA) competition, poly-SUMO-3 chains. Type of assay: binding. As for the experimental part:
Poly-SUMO chain formation. Poly-SUMO chains were synthesized by an in vitro SUMOylation reaction (4.375 μM GST-SUMO-3 and His-SUMO-3, 40 nM Ubc9 and E1, and 5 mM ATP in a 100 μl reaction). The reaction was carried out at 37° C. for 4 h and then diluted to 1 mL with phosphate buffered saline (PBS). Poly-SUMO chains were first separated from the His-SUMO-3 monomer by glutathione affinity chromatography. The eluted poly-SUMO chains were subsequently separated from the GST-SUMO-3 monomer by Ni-NTA chromatography. The eluted poly-SUMO chains were dialyzed and concentrated.
Purification of GST-WT-SIM and GST-SC-SIM. GST-tagged wild-type (GST-WT-SIM) or scrambled SIM sequence (GST-SC-SIM) was subcloned into the pGex4T-S expression vector (Amersham) and over-expressed as an N-terminal GST fusion protein in Escherichia coli strain BL21 (DE3) (Invitrogen) at 37° C. in LB media. […]
(§1) SIM pull-down. […] The plate was read at 450 nm by an ELISA reader after the reaction was stopped by addition of phosphoric acid. Quantifications of all SIM pull-downs were scaled by measurement of GST-WT-SIM pull-down (100%) and GST-SCSIM pull-down (0%). […]
The SIM and control peptides were used in pull-down assays to determine the inhibitory effects of the conjugation of inhibitor to AuNPs. […] The amount of SUMO pulled down by the SIM peptide was detected by enzyme-linked immunosorbent assay (ELISA) in an EIA microtiter plate. […]
(In general: In an ELISA, binding on a coated surface is turned into a signal by an enzyme label.)

In assay [2] the target is interaction between SIM and SUMO-1 (Homo sapiens, UniProt P63165). As to the kind of experiment: SIM pull-down (ELISA) competition, SUMO-1 monomer. Type of assay: binding. As for the experimental part: (§2) Purification of GST-WT-SIM and GST-SC-SIM. GST-tagged wild-type (GST-WT-SIM) or scrambled SIM sequence (GST-SC-SIM) was subcloned into the pGex4T-S expression vector (Amersham) and over-expressed as an N-terminal GST fusion protein in Escherichia coli strain BL21 (DE3) (Invitrogen) at 37° C. in LB media. Once the OD A595 nm reached 0.6, isopropyl 1-thio-[…] (IPTG; 1 mM) was added to the media and the cells were grown for an additional 4 h at 37° C. […]
as §1
(§3) The SIM and control peptides were used in pull-down assays to determine the inhibitory effects of the conjugation of inhibitor to AuNPs. […] The amount of SUMO pulled down by the SIM peptide was detected by enzyme-linked immunosorbent assay (ELISA) in an EIA microtiter plate. […] Based on the concentrations of SUMO chains and the experimental design, it was determined that the IC50 value is likely larger than the average Kd value of the complex between AuNP and SUMO chains.

In assay [3] the target is interaction between SIM and SUMO-3 (Homo sapiens, UniProt P55854). As to the kind of experiment: SIM pull-down (ELISA) competition, SUMO-3 monomer. In kind it is binding. As for the experimental part:
as §2, §1, §3

The next assay concerns all SUMO isoforms. Conditions: reference (7), cited from earlier work.

Chain of SUMO-3 (P55854 1-92 limits assumed): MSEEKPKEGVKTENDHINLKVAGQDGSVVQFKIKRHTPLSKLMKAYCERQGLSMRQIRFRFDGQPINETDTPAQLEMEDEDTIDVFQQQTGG
Chain of interaction between SIM and SUMO-3 (P55854 1-92 limits assumed): as above
T1 sequence (P55854 1-92 limits assumed): as above
T1 sequence (P55854 1-92 limits assumed): as above
Chain of interaction between SIM and SUMO-1 (P63165 1-97 limits assumed): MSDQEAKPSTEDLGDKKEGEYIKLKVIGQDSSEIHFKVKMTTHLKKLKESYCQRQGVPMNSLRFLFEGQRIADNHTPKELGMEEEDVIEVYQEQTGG

With `CCC(C)[C@H](NC(=O)/C=C/c1ccc(NC(=O)CCS)cc1)C(=O)N[C@@H](CC(C)C)C(=O)O` (stereo partly drawn) [derivative 2], the “chemical shift perturbation / binding to SUMO-3” value at SUMO-3 is “induced chemical shift perturbation on the same surface of SUMO-3 and to a similar extent”. In addition, the “inhibition of poly-SUMO-3 chain / SIM interaction” value in assay [1] is “nor did it inhibit poly-SUMO chain and SIM interactions”. In addition, the “inhibition of SUMO-1 monomer / SIM peptide interaction” value in assay [2] was “not significantly inhibitory”. Further, the “inhibition of SUMO-3 monomer / SIM peptide interaction” value in assay [3] is listed as “not significantly inhibitory”.
Take `CCC(C)[C@H](NC(=O)OCc1ccccc1)C(=O)N[C@@H](CC(C)C)C(=O)O` (stereo partly drawn) [compound 333751] (Cbz-[Ile(3ξ)]-Leu-OH): the “chemical shift perturbation / binding to SUMO-3” value at SUMO-3 is “among the strongest; also recorded: induced chemical shift perturbation on the same surface of SUMO-3 and to a similar extent”. Further, the “affinity lower than that between the PIASx SIM and SUMO-2” value on SUMO-3 (compared with PIASx SIM peptide) is reported as “more than 200 fold”. Further, the Kd at SUMO-3 (estimated from chemical shift change vs ligand:protein ratio) is 1200 ± 400 µM.
Consider KVDVIDLTIE [PIASx SIM], for which the “higher affinity for all SUMO isoforms than other characterized SIM sequences” value with all SUMO isoforms was about 10 fold. For the same compound, the Kd at all SUMO isoforms (read-out: dissociation constants for all SUMO isoforms) was 4 to 8 µM.
